The text below walks through data of ChEMBL document CHEMBL1127703, “Structural requirements for respiratory inhibition by rotenoids; is an intact B/C ring system essential?” (Bioorg Med Chem Lett, 1994).

A short description of the assay: Tested for the ability to block NADH dehydrogenase in a preparation of submitochondrial particles obtained from blow fly flight muscle. It is filed as tissue-based, Calliphoridae, Muscle tissue.
For `C=C(C)[C@H]1Cc2cc(C(=O)n3c(C)nc4ccccc43)ccc2O1`, the “-Log IC50” value is 7.82. To `C=C(C)[C@H]1Cc2c(ccc(Cn3c(C)nc4ccccc43)c2OC)O1` belongs 6.82; to `C=C(C)[C@H]1Cc2c(ccc(C(=O)n3c(C)nc4ccccc43)c2OC)O1`, 6.6; to `COc1ccc(CC2NCCc3cc4c(cc32)C[C@H](C(C)CSc2ccccc2)O4)cc1OC` (some centres not stated), 7.9. As for `C=C(C)[C@H]1Cc2cc3c(cc2O1)CCNC3Cc1ccc(OC)c(OC)c1` (some centres not stated), the figure is 6.76; as for `C=C(C)[C@H]1Cc2cc(Cn3c(C)nc4ccccc43)ccc2O1`, 7.3; as for `C=C(C)[C@H]1Cc2c(ccc3c2O[C@@H]2COc4cc(OC)c(OC)cc4[C@@H]2C3=O)O1` [ROTENONE], 8.7.
